Assay results from patent US20240156790A1, “COMPOUNDS, COMPOSITIONS, AND METHODS FOR MODULATING FERROPTOSIS AND TREATING EXCITOTOXIC DISORDERS” (THE TRUSTEES OF COLUMBIA UNIVERSITY IN THE CITY OF NEW YORK, priority 2018, published 2024).

Experiments:
[1] = PHB4082 IP PK Study (plasma, brain, liver, kidney); assay type: in vivo, C57BL/6 mice
Protocol: C57BL/6 mice (8-weeks of age and ˜25 g weight) were weighed before injection and divided into groups of two male and female mice per cage. PHB4082 was dissolved in 5% DMSO/95% of 65% v/v of 25% w/v 2-hydroxypropyl-3-cyclodextrin (Cayman Chemical) dissolved in 20% EtOH, 30% v/v Poly(ethylene glycol)-400 (Sigma Aldrich 202398), 5% v/v Tween 80 (Fluka 59924) to create a 2 mg/mL Solution. The same formulation without PHB4082 was used as a vehicle control. The solution was sterilized using a […] Steriflip filter unit (Thomas Scientific 1189Q46) and stored at 4° C. Mice were dosed IP and euthanized by CO2 asphyxiation for 3 min at 0, 1, 2, 4, and 8 h after administration. To ensure that the vehicle was well-tolerated, four mice were treated with vehicle and euthanized 4 h after administration. ˜0.5 mL of blood was collected via cardiac puncture and immediately put in K3 EDTA microtubes ([…] 41.1504.105) and kept on ice. Organs were harvested, placed in Eppendorf tubes, and frozen on dry ice. Blood samples were centrifuged for 10 min at 2,100×g at 4° C., then plasma was transferred to a clean tube and frozen on dry ice. Organ samples were weighed and placed in hard tissue homogenizing tubes (Omni International 19-628) and a volume of DEPC-treated nuclease-free water (IBI Scientific IB42200) was added to make a 500 mg/mL solution and homogenized using the Omni Bead Ruptor 4 at speed 5 for 30 seconds. PHB4082 was extracted from plasma or organ homogenate by adding 900 μL acetonitrile to 100 μL plasma or organ homogenate. Samples were mixed by vortexing and allowed to extract overnight at 4° C. prior to mixing for at least 5 min by rotating at room temperature, vortexing, and sonicating for at least 30 second prior to centrifugation for 10 min at 4,000×g and 4° C. The supernatant was then transferred to a glass vial and dried under nitrogen. After drying, the samples were resuspended in 100 μL of methanol and analyzed by UPLC-MS described below. The concentration of PHB4082 was determined against a standard curve with a linear fit and the data plot in GraphPad Prism 9 and fit with a one phase decay.
To evaluate whether PHB4082 was a suitable candidate for in vivo studies, we performed a pharmacokinetic study of PHB4082 in C57BL/6 mice at ˜8 weeks of age. To evaluate sex-specific effects on compound metabolism, two male and two female mice were used for each condition. Mice were dosed at 20 mg/kg via intraperitoneal (IP) injection and the injection volume ranged from 180 uL to 300 uL based on different body weights. […] Extracts were analyzed via UPLC-MS and the concentration of compound determined against a standard curve ran concurrently with samples.

[2] = In vivo pharmacokinetic study of TH-4-55-2 in drinking water (four days); parameters: species or system R6/2 mice; settings: both sexes, R6/2, mouse, brain, oral, 20-30 mg/kg/day, 4-day treatment, read-out: concentration in brain samples
Protocol: TH-4-55-2 and 42 uM Citric acid were dissolved in 5% DMSO, 5% ethanol, and 90% PBS rendering a final concentration of 0.29 mg/mL Th-4-55-2 in drinking water. The mice drink ˜2 mL water per day, and the resulting dosage was around 20-30 mg/kg/day. C57BL/6 mice at ˜8 weeks of age were treated using drinking water daily for four days. 6 mice were randomly picked, weighed daily, the weight recorded, and the change in body weight compared to the baseline, pre-injection weight was calculated. Any mouse that lost more than 20% of its baseline body weight for three consecutive days was euthanized prior to the completion of the study. Mice were euthanized by CO2 asphyxiation for 3 min after administration. Approximately 0.5 mL of blood was collected via cardiac puncture and immediately put in K3 EDTA microtubes and kept on ice. Brains were harvested, placed in Eppendorf tubes, and frozen on dry ice. […]
Prior to LC-MS analysis, the samples were resuspended in 100 μL methanol and centrifuged for 5 minutes at 14,000×g at 4° C. The supernatant was analyzed via SYNAPT High Resolution Mass Spectrometer.
Samples from animal studies were analyzed via UPLC-MS using a Waters SYNAPT XS Mass spectrometer equipped with an Acquity UPLC. […] All samples were injected twice and the base peak chromatogram was integrated and quantified by a standard curve concurrently ran using MassLynx software and exported. […]

For `Cc1noc(-c2ccc(NC3CCCCC3)c(NC3CCCCC3)c2)n1` [PHB4082, N1,N2-dicyclohexyl-4-(3-methyl-1,2,4-oxadiazol-5-yl)benzene-1,2-diamine], the “accumulation in plasma and brain” value ([1]; 20 mg/kg IP) was roughly 100 nM, the “tissue accumulation, in words” value ([1]; IP) was “stably accumulates in mouse kidney with minimal accumulation observed in brain” and the concentration in brain ([1]; PK study of PHB4082) was “around 200 nM”. It also gave a concentration at 8 h ([1]; both sexes, C57BL/6, mouse, kidney, intraperitoneal, 20 mg/kg IP, at eight hours) of 1800 nM.
`CCC(CC)Nc1cc(-c2nc(C)no2)cnc1NC1CCCCC1` [TH-4-55-2, N^2-cyclohexyl-5-(3-methyl-1,2,4-oxadiazol-5-yl)-N^3-(pentan-3-yl)pyridine-2,3-diamine] showed a concentration at 4 days [2] of 1.5 to 33 µM.
